Laboratory results reported in patent US11491139B2, “Inhibition of YAP for breaking tumor immune tolerance” (The Johns Hopkins University, priority 2015, dated 2022).

What was measured:
B16-melanoma cells = test: B16-melanoma growth experiments in mice (tumor volume); format: in vivo; details: C57BL/6 mice challenged with B16-melanoma, Verteporfin 2 mg/mouse i.p. every two days, anti-PD-1 (G4) 100 μg/mouse i.p. twice a week, GVAX 1×10^6 irradiated cells s.c., FIG. 4
Protocol: C57BL/6 mice were challenged with B16-melanoma cells and tumor progression was monitored as in FIG. 3. Cohorts of mice were injected treated with either VP, GVAX, anti-PD1 antibody, VP and anti-PD-1, or VP and GVAX beginning one day post-tumor injection. Control mice were left untreated (n=5/group). Shown are the mean tumor volumes for the groups +/−SD.
B16-melanoma cells were cultured in vitro in DMEM plus 10% heat inactivated Fetal Bovine Serum and were detached by trypsinization and washed prior to s.c. injection into the footpads of C57BL/6 mice (NCI). 1-5×10^4 B16 melanoma cells were injected each mouse in the footpad. In some cases, 10^5 B16 cells were injected. Once tumors were palpable (7-10 days), […] of 1×10^6 lethally irradiated (150Gy) B16 GM-vaccine cells were injected subcutaneously into the contralateral limb. For all these experiments, 5-10 mice were used per group. A hybridoma cell line expressing a blocking anti-PD-1 antibody (clone G4) was obtained from Dr. Charles Drake (JHH). […] Tumor volume was determined by digital caliper measurements throughout the experiment. The relative tumor volume was calculated by the formula: Length (mm)×Width (mm)×Height (mm)×0.5326×0.01. […] Cytokines and Foxp3 were measured by intracellular flow cytometry.

[1] = statement with reference [17]; may limit bioavailability; cited from earlier work

Verteporfin
tumor growth / tumor size (tumor volume) (B16-melanoma cells): modest reduction in tumor size | tumor growth / tumor size (tumor volume) (B16-melanoma cells; listed as VP): did not alter the course of tumor growth | solubility [1]: prone to solubility issues
